From publication PMC5706701, “Development of a homogenous high-throughput assay for inositol hexakisphosphate kinase 1 activity” (PLoS ONE, 2017) come the findings set out here.

In the experiment the target is T1, Human IP6K1 (Homo sapiens, UniProt Q92551).
T1 construct: GST (N, cleaved yes); made in house; host or cells: C43 E. coli, pGEX-6P-2
Description: IP6K1 high-throughput screen of the Sigma LOPAC (ADP-Glo Max, single point).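 Also: final compound concentration 10µM in 5% DMSO.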 It is filed as biochemical. In general terms: ADP-Glo first removes unused ATP, then detects ADP through luciferase.

Where [1] appears, read: LOPAC single-point screen, ADP-Glo Max raw signal per well.
Setting [2] is: LOPAC single-point screen, Z-score against plate average and StDev.
The mark [3] stands for this setting: LOPAC single-point screen, ADP-Glo Max luminescence raw signal per well.
Where [4] appears, read: LOPAC single-point screen, Z-score relative to plate average and StDev.
[5] abbreviates: Sigma LOPAC single-point screen, ADP-Glo Max raw signal per well.
Where [6] appears, read: Sigma LOPAC single-point screen, Z-score from plate average and StDev.
[7] abbreviates: LOPAC single-point screen, Z-score from raw signal with plate average and StDev.
[8] abbreviates: LOPAC single-point screen, Z-score from plate average and StDev.

Structures can show the parent of a compound that is named as a salt. Where two headings read alike, the source gives them in different places.

T1 sequence (Q92551 whole entry): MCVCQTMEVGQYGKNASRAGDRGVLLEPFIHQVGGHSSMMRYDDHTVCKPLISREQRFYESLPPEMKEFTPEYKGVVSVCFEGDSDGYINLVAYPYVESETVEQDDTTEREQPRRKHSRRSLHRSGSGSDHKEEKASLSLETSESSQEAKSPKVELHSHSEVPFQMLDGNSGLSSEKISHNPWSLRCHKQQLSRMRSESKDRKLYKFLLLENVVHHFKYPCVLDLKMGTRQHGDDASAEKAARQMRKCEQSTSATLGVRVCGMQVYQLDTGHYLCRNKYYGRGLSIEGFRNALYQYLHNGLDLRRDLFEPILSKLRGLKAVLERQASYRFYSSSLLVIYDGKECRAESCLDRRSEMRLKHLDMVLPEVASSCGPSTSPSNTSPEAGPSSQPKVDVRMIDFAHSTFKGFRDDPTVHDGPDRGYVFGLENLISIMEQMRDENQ

Consider `C[C@@H]1O[C@H](C[N+](C)(C)C)C[C@H]1O.[Cl-]` (racemic) [(±)-Muscarine chloride], for which the “Raw Signal” value under setting [1] was 54548. The Z-score under setting [2] is on record as 0.02596.
With `Br.CO[C@H]1CC=C2CCN3CCC4=C(CC(=O)OC4)[C@]23C1` [Dihydro-beta-erythroidine hydrobromide], the “Raw Signal” value under setting [3] is given as 51044. The same compound displayed a Z-score under setting [4] of -0.8373.
Take `C[C@@H]1O[C@@H](O[C@H]2C[C@@H](O)[C@]3(CO)[C@H]4[C@H](O)C[C@]5(C)[C@@H](C6=CC(=O)OC6)CC[C@]5(O)[C@@H]4CC[C@]3(O)C2)[C@H](O)[C@H](O)[C@H]1O` [Ouabain]: the “Raw Signal” value under setting [5] is 56928. The compound further returned a Z-score under setting [6] of 0.4259.
For the compound `O=C(/C=C/c1ccc(O)c(O)c1)OCCc1ccccc1` [Caffeic acid phenethyl ester], the “Raw Signal” value under setting [3] is 53915. This compound also gave a Z-score under setting [4] of -0.7042.
As to `N#C/C(=C\c1ccc(O)c(O)c1)C(N)=S` [Tyrphostin 47], under setting [3], the “Raw Signal” value is on record as 42103. This compound also yielded a Z-score under setting [4] of -2.705.
For the compound `O=[N+]([O-])c1cccc2cn[nH]c12` [7-Nitroindazole], the “Raw Signal” value under setting [1] is on record as 55532. Further, the Z-score under setting [2] is listed as 0.1913.
Take `O=C1c2c(O)ccc(O)c2C(=O)c2c(NCCNCCO)ccc(NCCNCCO)c21` [Mitoxantrone]: under setting [3], the “Raw Signal” value was 48302. The Z-score under setting [4] is -1.024.
As to `CC(=O)C(C)=O` [2,3-Butanedione], the “Raw Signal” value under setting [1] amounted to 53441. Moreover, the Z-score under setting [7] is reported as -0.3505.
Regarding `Nc1ccc(N2C(=O)c3ccccc3C2=O)c(Cl)c1` [N-(4-Amino-2-chlorophenyl)phthalimide], the “Raw Signal” value under setting [5] is listed as 61206. The Z-score under setting [6] stood at 0.58.
For the compound `CC(C)=CCC/C(C)=C/CC/C(C)=C/CSc1ccccc1C(=O)O` [Farnesylthiosalicylic acid], under setting [3], the “Raw Signal” value stood at 51239. Under setting [4], the Z-score is listed as -0.7977.
For `O=C1C=CC(=O)C=C1` [p-Benzoquinone], the “Raw Signal” value under setting [3] is reported as 51681. Under setting [4], this compound registered a Z-score of -1.098.
Regarding `CNCCC(Oc1ccccc1OC)c1ccccc1` (stereo not shown) [Nisoxetine hydrochloride], the “Raw Signal” value came to 55675 and the Z-score turned out to be 0.2153.
Regarding `NCC(CC(=O)O)c1ccc(Cl)cc1` (racemic) [(±)-Baclofen], the “Raw Signal” value under setting [5] was determined as 65373. Further, the Z-score under setting [6] was found to be 1.3139.
Take `CCN(CC)C(=O)c1ccc(O)c(OC)c1` [Vanillic acid diethylamide]: the “Raw Signal” value under setting [1] is 56150. The compound further yielded a Z-score under setting [2] of 0.1996.
With `CC(C)(C=O)Cc1cc(C(C)(C)C)c(O)c(C(C)(C)C)c1` [CGP-13501], the “Raw Signal” value under setting [1] is given as 59120. Also, the Z-score under setting [2] came out at 0.2126.
Take `CCC1(C2=NCCN2)Cc2ccccc2O1` (stereo not shown) [Efaroxan hydrochloride]: the “Raw Signal” value under setting [1] came to 53966. Besides, under setting [7], the Z-score is given as -0.2439.
For the compound `CC(=O)C(C)=NO` [2,3-Butanedione monoxime], the “Raw Signal” value under setting [3] is reported as 66346. This compound yielded a Z-score under setting [8] of 1.485.
Turning to `CC(=O)O[C@H]1C[C@@]2(C)[C@@H](C[C@@H](O)[C@H]3[C@@]4(C)CC[C@@H](O)[C@@H](C)[C@@H]4CC[C@@]32C)/C1=C(\CCC=C(C)C)C(=O)[O-].[Na+]` [Fusidic acid sodium], under setting [1], the “Raw Signal” value is 56091. The Z-score under setting [2] stood at 0.1876.
With `N.N.O=C([O-])C1(C(=O)[O-])CCC1.[Pt+2]` [Carboplatin], the “Raw Signal” value under setting [3] came to 53949. In addition, under setting [4], the Z-score was -0.6982.
Turning to `Br.C=CCN1CCc2cccc3c2[C@H]1Cc1ccc(O)c(O)c1-3` [R(-)-N-Allylnorapomorphine hydrobromide], the “Raw Signal” value under setting [3] was determined as 62401. This compound also registered a Z-score under setting [8] of 1.469.
`Oc1ccc(/C=C/c2cc(O)cc(O)c2)cc1` [Resveratrol]: the “Raw Signal” value under setting [1] turned out to be 54146. The same compound yielded a Z-score under setting [7] of -0.3648.
For the compound `CCCCCC(O)c1cccc(OCc2ccc3ccccc3n2)c1` (stereo not shown) [REV 5901], the “Raw Signal” value under setting [5] worked out at 62376. The Z-score under setting [6] was 1.234.
With `CC(Oc1ccc(Oc2cnc3ccc(Cl)cc3n2)cc1)C(=O)O` (stereo not shown) [XK469], under setting [1], the “Raw Signal” value amounted to 55038. For the same compound, the Z-score under setting [7] was -0.1915.
Turning to `CC[C@H](C)C(=O)O[C@H]1CCC=C2C=C[C@H](C)[C@H](CC[C@@H]3C[C@@H](O)CC(=O)O3)[C@H]21` [Mevastatin], the “Raw Signal” value under setting [3] came to 50064. Also, the Z-score under setting [4] is on record as -0.7275.
In the case of `N[C@@H]1C[C@H]1c1ccccc1` [Tranylcypromine hydrochloride], the “Raw Signal” value under setting [1] turned out to be 55566. In addition, the Z-score under setting [2] is on record as -0.08894.
In the case of `Cc1ccccc1N1C(=O)c2cc(S(N)(=O)=O)c(Cl)cc2NC1C` (stereo not shown) [Metolazone], the “Raw Signal” value under setting [1] was determined as 54501. The same compound showed a Z-score under setting [2] of 0.01806.
In the case of `CC(C)N(CCC(C(N)=O)(c1ccccc1)c1ccccn1)C(C)C` (stereo not shown) [Disopyramide], the “Raw Signal” value under setting [3] is 43822. The compound further showed a Z-score under setting [4] of -2.304.
`COc1ccc2c(c1)c(CC(=O)O)c(C)n2C(=O)c1ccc(Cl)cc1` [Indomethacin]: the “Raw Signal” value under setting [1] was found to be 54719. This compound yielded a Z-score under setting [2] of 0.05469.
Take `COc1cc2c(CCNC(C)=O)c[nH]c2cc1Cl` [6-Chloromelatonin]: under setting [5], the “Raw Signal” value amounted to 61765. The Z-score under setting [6] stood at 0.6784.
Regarding `O=C(O)CP(=O)(O)O` [Phosphonoacetic acid], the “Raw Signal” value under setting [1] is 54653. The compound further displayed a Z-score under setting [7] of -0.2663.
For `NC(=O)C(=O)O` [Sodium Oxamate], under setting [1], the “Raw Signal” value is 56283. Further, the Z-score under setting [2] is given as 0.3175.
With `Cn1cnc2c(NCc3ccccc3)nc(NCCO)nc21` [Olomoucine], the “Raw Signal” value under setting [5] was determined as 60982. The compound further came in with a Z-score under setting [6] of 1.107.
`CCCn1cnc2c1c(=O)n(CCCCC(C)=O)c(=O)n2C` [Propentofylline]: under setting [1], the “Raw Signal” value is listed as 54119. The compound further showed a Z-score under setting [7] of -0.3701.
Turning to `CCCCCCCC/C=C\CCCCCCCC(=O)NCCO` [N-Oleoylethanolamine], the “Raw Signal” value under setting [1] amounted to 53081. The same compound returned a Z-score under setting [7] of -0.2205.
Regarding `CC[C@]1(O)C[C@@H]2CN(CCc3c([nH]c4ccccc34)[C@@](C(=O)OC)(c3cc4c(cc3OC)N(C)[C@H]3[C@@](O)(C(=O)OC)[C@H](OC(C)=O)[C@]5(CC)C=CCN6CC[C@]43[C@@H]65)C2)C1.O=S(=O)(O)O` [Vinblastine sulfate salt], the “Raw Signal” value under setting [1] is on record as 55305. The Z-score under setting [7] was -0.1396.
In the case of `NC(CCP(=O)(O)O)C(=O)O` (racemic) [(±)-2-Amino-4-phosphonobutyric acid], the “Raw Signal” value under setting [1] was 55594. Further, the Z-score under setting [7] is -0.4085.
Compound `CCn1cc(C(=O)O)c(=O)c2ccc(Cc3ccccc3)nc21` [Amfonelic acid] gave a Z-score under setting [7] of -0.107.
In the case of `N[C@H](CCC(=O)NCS(=O)(=O)O)C(=O)O` [gamma-D-Glutamylaminomethylsulfonic acid], under setting [5], the “Raw Signal” value is on record as 58321. This compound also gave a Z-score under setting [6] of 0.6405.
With `CCCNC(=O)NS(=O)(=O)c1ccc(Cl)cc1` [Chlorpropamide], the “Raw Signal” value under setting [1] worked out at 58549. The compound further displayed a Z-score under setting [2] of 0.112.
Take `CCCN(CC1CC1)c1nc(C)nc(Nc2c(Cl)cc(Cl)cc2Cl)c1Cl` [NBI 27914]: the “Raw Signal” value under setting [3] amounted to 52610. The Z-score under setting [4] is -0.5193.
